Numbered stars: 1 amine (or outer) side, 2 acyl side, 3 side chain; on linkers, the order of the positions; unused ones are H or OH. Bridge positions count the residues as written; N and C are the ends. Square brackets hold non-standard residues; d marks the D form. Peptide text beside a SMILES is read from it. I, II: the chains in the order shown. Actinocin(9to1) = Cc1c2oc3c(C)ccc(C(=O)[*:1])c3nc-2c(C(=O)[*:2])c(N)c1=O; NMeV = CN[C@H](C(=O)O)C(C)C; Sar = CNCC(=O)O
Columns and labels:
Conditions in all cases: human; call rule not given here
Hepatotoxicity [1] = test: FDA HLAED, liver enzyme composite activity
Hepatotoxicity [2] = test: FDA HLAED, serum glutamic pyruvic transaminase (SGPT) increase
Hepatotoxicity [3] = test: FDA HLAED, serum glutamic oxaloacetic transaminase (SGOT) increase
Hepatotoxicity [4] = test: FDA HLAED, alkaline phosphatase increase

SMILES | Composite Activity - Active (Hepatotoxicity [1]) | Composite Activity - Marginal (Hepatotoxicity [1]) | SGPT Increase - Activity Score (Hepatotoxicity [2]) | SGPT Increase - Index Value (Hepatotoxicity [2]) | SGPT Increase - Number of Reports (Hepatotoxicity [2]) | Composite Activity - Score (Hepatotoxicity [1]) | SGOT Increase - Activity Score (Hepatotoxicity [3]) | SGOT Increase - Index Value (Hepatotoxicity [3]) | SGOT Increase - Number of Reports (Hepatotoxicity [3]) | Alkaline Phosphatase Increase - Activity Score (Hepatotoxicity [4]) | Alkaline Phosphatase Increase - Index Value (Hepatotoxicity [4]) | Alkaline Phosphatase Increase - Number of Reports (Hepatotoxicity [4]) | Composite Activity - Active (Hepatotoxicity [1]; Liver) | Composite Activity - Marginal (Hepatotoxicity [1]; Liver) | Composite Activity - Score (Hepatotoxicity [1]; Liver)
CC(=O)N[C@@H](CS)C(=O)O [ACETYLCYSTEINE] | 1 | 0 | Active | 4.8 | >= 4 |  |  |  |  |  |  |  |  |  | 
NCC(CC(=O)O)c1ccc(Cl)cc1 (stereo not given) [BACLOFEN] | 2 | 0 |  |  |  | Active | Active | 5.4 | >= 4 | Active | 5.4 | >= 4 |  |  | 
Nc1ccn([C@@H]2O[C@H](CO)[C@@H](O)[C@@H]2O)c(=O)n1 [CYTARABINE] |  |  | Active | 4.1 | >= 4 |  | Active | 6.1 | >= 4 | Active | 4.1 | >= 4 | 3 | 0 | Active
Cc1c2oc3c(C)ccc(C(=O)N[C@@H]4C(=O)N[C@H](C(C)C)C(=O)N5CCC[C@H]5C(=O)N(C)CC(=O)N(C)[C@@H](C(C)C)C(=O)O[C@@H]4C)c3nc-2c(C(=O)N[C@@H]2C(=O)N[C@H](C(C)C)C(=O)N3CCC[C@H]3C(=O)N(C)CC(=O)N(C)[C@@H](C(C)C)C(=O)O[C@@H]2C)c(N)c1=O [DACTINOMYCIN] (I: T[dV]P[Sar][NMeV] / II: T[dV]P[Sar][NMeV]; ester I:1-I:C, II:1-II:C; linker I:N-II:N via Actinocin(9to1)) | 2 | 0 | Active | 23.7 | >= 4 | Active | Active | 29.6 | >= 4 |  |  |  |  |  | 
C#C[C@]1(O)CC[C@H]2[C@@H]3CCC4=Cc5oncc5C[C@]4(C)[C@H]3CC[C@@]21C [DANAZOL] | 1 | 0 | Active | 10.2 | >= 4 |  |  |  |  |  |  |  |  |  | 
CC(O)(P(=O)(O)O)P(=O)(O)O [ETIDRONIC ACID] | 1 | 0 |  |  |  |  |  |  |  | Active | 8.6 | >= 4 |  |  | 
FC(F)(F)C(Cl)Br (stereo not given) [HALOTHANE] | 1 | 0 |  |  |  |  | Active | 16.5 | >= 4 |  |  |  |  |  | 
COc1ccc2c(c1)c(CC(=O)O)c(C)n2C(=O)c1ccc(Cl)cc1 [INDOMETHACIN] | 0 | 2 |  |  |  |  | Marginally Active | 3.8 | >= 4 | Marginally Active | 3.1 | >= 4 |  |  | 
CN1CCN(C2=Nc3ccccc3Oc3ccc(Cl)cc32)CC1 [LOXAPINE] | 2 | 0 | Active | 9.9 | >= 4 | Active | Active | 9.9 | >= 4 |  |  |  |  |  | 
Cc1cccc(Nc2ccccc2C(=O)O)c1C [MEFENAMIC ACID] |  |  | Active | 19.5 | < 4 |  | Active | 26 | >= 4 |  |  |  | 2 | 0 | Active
Sc1ncnc2nc[nH]c12 [MERCAPTOPURINE ANHYDROUS] |  |  | Active | 5.2 | >= 4 |  | Active | 4.4 | >= 4 |  |  |  | 2 | 0 | Active
Cc1ncc([N+](=O)[O-])n1CCO [METRONIDAZOLE] | 1 | 0 |  |  |  |  |  |  |  | Active | 6.2 | >= 4 |  |  | 
CN(C)c1ccc(O)c2c1C[C@H]1C[C@H]3[C@H](N(C)C)C(O)=C(C(N)=O)C(=O)[C@@]3(O)C(O)=C1C2=O [MINOCYCLINE] | 0 | 2 | Marginally Active | No Shipping Units | >= 4 |  | Marginally Active | No Shipping Units | >= 4 |  |  |  |  |  | 
CCOc1ccc2ccccc2c1C(=O)N[C@@H]1C(=O)N2[C@@H]1SC(C)(C)[C@@H]2C(=O)O [NAFCILLIN] | 1 | 0 |  |  |  |  |  |  |  | Active | 10.9 | >= 4 |  |  | 
CNCCC=C1c2ccccc2CCc2ccccc21 [NORTRIPTYLINE] |  |  | Marginally Active | 11.6 | < 4 |  |  |  |  | Active | 15.4 | >= 4 | 1 | 1 | 
OCCN1CCN(CCCN2c3ccccc3Sc3ccc(Cl)cc32)CC1 [PERPHENAZINE] | 0 | 0 |  |  |  |  |  |  |  |  |  |  |  |  | 
O=C1NC(=O)C(c2ccccc2)(c2ccccc2)N1 [PHENYTOIN] |  |  |  |  |  |  |  |  |  |  |  |  | 0 | 0 | 

Source: ChEMBL document CHEMBL1697781, “Assessment of the health effects of chemicals in humans: II. Construction of an adverse effects database for QSAR modeling” (Curr Drug Discov Technol, 2004)
